From patent publication US20240400980A1, “PORCINE PLURIPOTENT STEM CELL CULTURE MEDIUM AND USE THEREOF” (CHINA AGRICULTURAL UNIVERSITY, priority 2021, published 2024)
“Also recorded” adds a separate entry of the source.

Legend:
Assay type in all cases: cell-based, porcine
pgEpiSCs [1] = assay: RT-qPCR of marker genes in pgEpiSCs in modified 3i/LAF medium; details: for marker gene mRNA expression after removal of the component: component removed from 3i/LAF medium, qRT-PCR
Protocol: Total RNA of pgEpiSCs was extracted using a RNAprep Pure Cell/Bacteria Kit (TIANGEN, DP430), and then reverse transcribed into cDNA using 5× all-in-one RT premix (Abm, G490). PCR was performed using 2× RealStar Green Power Mixture (GenStar, A311-05) on the LightCycler 480 II real-time system (Roche). Comparative CT (2^−ΔΔCT) method was used to analyze the data. ACT was calculated using EF1A as an internal control. Three biological replicates were performed for all experiments. Primers for quantitative real-time PCR were listed in the key resource table.
(§1) Based on the prepared 3i/LAF medium and its culture method in2 above, the requirement of various factors for long-term maintenance in vitro of pgEpiSCs was test by the inventors under the same conditions as in 2 above, except for removing small molecule inhibitors and cytokines from the medium one by one.
(§2) In addition, based on the prepared 3i/LAF medium and its culture method in 2 above, the following tests were also performed by the inventors under the same conditions as in 2 above.

pgEpiSCs [2] = assay: Immunofluorescence of POU5F1 and EOMES in pgEpiSCs in modified 3i/LAF medium; details: component removed from 3i/LAF medium
Protocol: Cells were washed with DPBS (Gibco, C14190500BT) and fixed with 4% paraformaldehyde at room temperature for 30 minutes, then washed again with DPBS, permeabilized in 0.1% Triton X-100 for 20 minutes, and blocked with 3% BSA for 1 hour. Cells were incubated with the primary antibody diluted with 3% BSA overnight at 4° C. Cells were then washed 3 times with the washing buffer (DPBS containing 0.1% Triton X-100 and 0.1% Tween 20) for 3 minutes each time. Cells were incubated with diluted secondary antibody and washing buffer together at room temperature for 1 hour, then washed 3 times with the washing buffer for 5 minutes, followed by nuclear staining with DAPI (Roche Life Science, 10236276001) for 3 minutes.
as §1

pgEpiSCs [3] = assay: Clone morphology and alkaline phosphatase (AP) staining of pgEpiSCs in modified 3i/LAF medium; details: for clone morphology / AP staining after removal of the component: component removed from 3i/LAF medium
Description: The alkaline phosphatase staining for pgEpiSCs was based on the Alkaline Phosphatase Detection Kit (Millipore, SCR004).
The specific experimental steps followed the instructions for the kit.
as §1, §2
According to the 3i/LAF medium and its culture method prepared in 2 above, the inventors also investigated the effect of the adjusted or replaced medium on the long-term in vitro maintenance of pgEpiSCs on the basis of adjusting the concentrations of the small molecule inhibitors and cytokines or replacing the compositions of the small molecule inhibitors and cytokines in the culture medium one by one without altering the other conditions.
Experimental method: pgEpiSCs were cultured with the adjusted medium, after which AP staining was performed on the cultured pgEpiSCs of P1 (indicating the pgEpiSCs after 1 passage in the adjusted medium) or P3 (indicating the pgEpiSCs after 3 passages in the adjusted medium). The specific steps of AP staining are described in the section of Experimental Methods described previously.
Principle of the experiment: undifferentiated stem cells will express Ap at high level. By staining fixed stem cells, differentiated cells show no color and undifferentiated cells show purple or red color.

phosphorylated STAT3 = assay: Western blot of phosphorylated STAT3 in pgEpiSCs; details: with or without LIF; Western blotting
Protocol: Total proteins in cells were extracted using cell lysis buffer (Beyotime Biotechnology, P0013), and nuclear and cytoplasmic proteins were extracted using a cell nucleus and cytoplasmic protein extraction kit (Beyotime Biotechnology, P0027) supplemented with protease and phosphatase inhibitors (P1050). The concentration of extracted proteins was measured using a Bradford protein detection kit (Bio-red, 5000201). An equal amount of proteins (15 μg) were separated by SDS-PAGE gel electrophoresis, and then transferred from the gel to the Immobilon-P transfer membrane (Merck Millipore; pore size: 0.45 μm; IPVH00010). The blots were blocked in 5% skim milk powder (Sangon Biotech, A600669-0250) in TBST (20 mM Tris, pH 7.5; 150 mM NaCl; 0.1% Tween 20) at room temperature for 1 hour, and then incubated with the antibody diluted in 5% skim milk powder in TBST at 4° C. overnight. The next day, the blots were rinsed 3 times with TBST for 5 minutes each time, and then incubated with HRP conjugated secondary antibody diluted in 5% skim milk powder in TBST at room temperature for 1 hour, and finally rinsed 3 times with TBST for 5 minutes each time. The blots were developed using SuperSignal® West Dura Extended Duration Substrate (Thermo Fisher Scientific, 34075), followed by analysis of the band strength of the target protein using the CLINX chemiluminescence software. […]

pgEpiSCs [4] = assay: Proliferation and passage of pgEpiSCs with FGF2 removed or varied; details: for proliferation and passage of pgEpiSCs: FGF2 removed, with addition of PD0325901
Protocol: Porcine EpiSCs were cultured in 12-well plates. Cell samples were seeded in triplicate at a density of 2×10^4 cells per well. Cells were counted every 12 hours. Cells were digested and counted using the Luna™ automated cell counter at each time point. The results of the three counts were averaged and plotted. The cell doubling time was calculated as follows: Doubling Time (DT)=24×[lg2/(lgNt−IgN0)], where 24 was the cell culture time (hours); Nt was the number of cells cultured for 48 hours; and No was the number of cells recorded at 24 hours.
as §1

[5] = IWR-1-endo replaced in 3i/LAF medium

COc1ccc(N(C(=O)Oc2c(C)cccc2C)c2ccnc(Nc3ccc(N4CCN(C)CC4)cc3)n2)c(OC)c1 [WH-4-023]
marker gene mRNA expression after removal of the component (pgEpiSCs [1]): upregulation of the gastrulation formation marker genes BMP2, BMP4, EOMES and T | POU5F1 and EOMES immunostaining after removal of the component (pgEpiSCs [2]): reduced or heterogeneous accumulation of the pluripotency factor POU5F1, while promoting the expression of the mesoderm and endoderm progenitor cell marker EOMES

LIF: cytokine of 3i/LAF; recombinant human LIF, PeproTech 300-05
clone morphology / AP staining after removal of the component (pgEpiSCs [3]): not a necessary condition for maintaining the morphology of pgEpiSC clones | detection of phosphorylated STAT3 (phosphorylated STAT3): phosphorylated STAT3 could only be detected in the presence of LIF

O=C(Nc1cccc2cccnc12)c1ccc(N2C(=O)[C@@H]3[C@H](C2=O)[C@@H]2C=C[C@H]3C2)cc1 [IWR-1-endo]
clone morphology / AP staining after removal of the component (pgEpiSCs [3]): unclear boundaries of pgEpiSC clones | marker gene mRNA expression after removal of the component (pgEpiSCs [1]): significant downregulation of core pluripotency factors such as NANOG, POU5F1, SOX2 and REX1; also recorded: upregulation of the gastrulation formation marker genes BMP2, BMP4, EOMES and T | POU5F1 and EOMES immunostaining after removal of the component (pgEpiSCs [2]): reduced or heterogeneous accumulation of the pluripotency factor POU5F1, while promoting the expression of the mesoderm and endoderm progenitor cell marker EOMES

FGF2: fibroblast growth factor; recombinant human FGF-basic, Peprotech 100-18B
proliferation and passage of pgEpiSCs (pgEpiSCs [4]): could not proliferate or passage normally | proliferation of pgEpiSCs at high concentration (pgEpiSCs [4]; high concentration of FGF2): cells proliferated faster at the high concentration | proliferation ability of pgEpiSCs at reduced concentration (pgEpiSCs [4]; reduced concentration of FGF2, otherwise unchanged conditions): significantly reduced the proliferation ability of pgEpiSCs

O=C(NOC[C@H](O)CO)c1ccc(F)c(F)c1Nc1ccc(I)cc1F [PD0325901]
proliferation and passage of pgEpiSCs (pgEpiSCs [4]): could not proliferate or passage normally

Cc1c[nH]c(-c2cnc(NCCNc3ccc(C#N)cn3)nc2-c2ccc(Cl)cc2Cl)n1 [CHIR99021]
marker gene mRNA expression after removal of the component (pgEpiSCs [1]): downregulated the expression of cell proliferation related genes such as LIN28A, C-MYC, ETV4 and ETV5 | expression of POU5F1 and GATA6 at high concentration (pgEpiSCs [1]; high concentration of CHIR99021 in 3i/LAF medium): downregulation of the pluripotency marker POU5F1 and significant upregulation of the endodermal marker GATA6; also recorded: the expression of the pluripotency gene POU5F1 was reduced, and the expression of the lineage differentiation gene GATA6 was upregulated, presenting a heterogeneous expression pattern | expression levels of TBX3 and ESRRB (pgEpiSCs [1]; increasing concentration of CHIR99021 in 3i/LAF medium): increased with increasing concentration

NC(=O)c1ccc(-c2nc(-c3ccc4c(c3)OCO4)c(-c3ccccn3)[nH]2)cc1 [SB431542]
clone morphology after addition of the inhibitor (pgEpiSCs [3]; inhibitor added to the medium): irregular clone morphology | BMP4 and BMP downstream transcription factors ID2, ID3 after addition of the inhibitor (pgEpiSCs [1]; inhibitor added to the medium): significant increase in BMP4 and BMP downstream transcription factors (such as ID2 and ID3) | NANOG levels after addition of the inhibitor (pgEpiSCs [1]; inhibitor added to the medium): significant decline in NANOG levels | pluripotency markers POU5F1 and REX1 after addition of the inhibitor (pgEpiSCs [1]; inhibitor added to the medium): significant decrease in pluripotency markers (such as POU5F1 and REX1)

Oc1nc(-c2ccc(C(F)(F)F)cc2)nc2c1CSCC2 [XAV939]
maintenance of pluripotency after replacing IWR-1-endo (pgEpiSCs [3]; [5]): unable to maintain pluripotency for a long time | passages until AP positivity was lost (pgEpiSCs [3]; [5]): around 8 passages | expression of core pluripotency factor OCT4 (POU5F1) (pgEpiSCs [1]; [5]): downregulated | expression of pluripotency factors REX1, STELLA, and ESRRB (pgEpiSCs [1]; [5]): downregulated

B1: Activin A: a member of the TGF-β superfamily; recombinant human Activin A, Peprotech 120-14E (protein, UniProt P08476 311-426, looked up)
Inhibin beta A chain: GLECDGKVNICCKKQFFVSFKDIGWNDWIIAPSGYHANYCEGECPSHIAGTSGSSLSFHSTVINHYRMRGHSPFANLKSCCVPTKLRPMSMLYYDDGQNIIKKDIQNMIVEECGCS
modifications: Inhibin beta A chain recombinant homodimer
marker gene mRNA expression after removal of the component (pgEpiSCs [1]): reduced levels of the pluripotency marker NANOG
